The subject of this assay is keratinocytes. Put plainly: Active photoprotection towards UVA-induced oxidative stress on keratinocytes (DCFH-DA fluorescent probe). The note with it: for % of fluorescence relative to the control cells exposed to UVA, TEST 1 / % of fluorescence relative to the control cells exposed to UVA, TEST 2 / % of fluorescence relative to the control cells exposed to UVA, TEST 3 / % of fluorescence relative to the control cells exposed to UVA, Mean: 24 h pre-incubation; for % of fluorescence relative to the control cells exposed to UVA, TEST 1 / % of fluorescence relative to the control cells exposed to UVA, TEST 2 / % of fluorescence relative to the control cells exposed to UVA, TEST 3: DCF fluorescence after UVA; for % of fluorescence relative to the control cells exposed to UVA, Mean: mean of 3 tests. The class given is cell-based. On the procedure:
The technique for evaluating the photo-protection is performed according to a well-known method (J. of Photochemistry and Photobiology B: Biology 57 (2000) 102-112 TOBI et al: Glutathione modulates the level of free radicals produced in UVA irradiated cells). This technique uses a fluorescent probe as a marker of the global intracellular oxidative stress, 2′,7′-dichlorofluoresceine diacetate (DCFH-DA).
The use of DCFH-DA as an oxidative stress marker is based on its physicochemical properties. It is a non-ionic apolar molecule capable of diffusing across cell membranes. Once inside the cell, DCFH-DA is hydrolysed by intracellular esterases to a non-fluorescent compound: DCFH or 2,7-dichlorofluoresceine. In the presence of activated oxygen species, DCFH is rapidly oxidized to a highly fluorescent compound: DCF or 2,7-dichlorofluoresceine.
At confluence, the keratinocytes are incubated in the presence of the compound of Example 1 for 24 hours at 37° C., 5% CO2, in the culture medium, according to a dose effect (3 concentrations). • 2. Incorporation of DCFH-DA
The keratinocytes, pretreated with the test compound, are rinsed and then incubated in the presence of DCFH-DA in the dark. • 3. Exposure to UVA
After this incubation, the DCFH-DA solution is removed and the cells are then exposed to UVA.
Comment: an unexposed control plate is kept in darkness at room temperature.
The fluorescence of the DCF is evaluated immediately after the exposure to UVA, by spectro-fluorimetry (excitation: 480 nm; emission: 530 nm). • 5. Results:
The results are expressed in Table 1 below, as a % of fluorescence relative to the control cells exposed to UVA.
The test described in Example 6 above was performed under the same conditions on R-2-oxothiazolidine-4-carboxylic acid (Compound A) and on an alkyl derivative thereof, described in patent U.S. Pat. No. 6,004,543 (Compound B).

As for `CCOC(=O)C1CSC(=O)N1` (stereo not drawn) [Compound B, reference compound], under “at 7 mM, with dose effect”, the “Measurement of the intracellular Red/Ox balance: % reduction in the fluorescence of the DCFH probe” value is 37% at 7 mM with dose effect.
In the case of `O=C1N[C@H](C(=O)O)CS1` [Compound A, R-2-oxothiazolidine-4-carboxylic acid, reference compound], the “Measurement of the intracellular Red/Ox balance: % reduction in the fluorescence of the DCFH probe” value (at 5 mM) was determined as 16% at 5 mM.
`C[Si](C)(C)COC(=O)[C@@H]1CSC(=O)N1` [Example 1]: under “100 μM”, the “% of fluorescence relative to the control cells exposed to UVA, TEST 1” value came to 95%; the “% of fluorescence relative to the control cells exposed to UVA, TEST 2” value stood at 81%; the “% of fluorescence relative to the control cells exposed to UVA, TEST 3” value was determined as 75%; the “% of fluorescence relative to the control cells exposed to UVA, Mean” value is 84%. Further, under “250 μM”, the “% of fluorescence relative to the control cells exposed to UVA, TEST 1” value came to 82%; the “% of fluorescence relative to the control cells exposed to UVA, TEST 2” value worked out at 71%; the “% of fluorescence relative to the control cells exposed to UVA, TEST 3” value was 70%; the “% of fluorescence relative to the control cells exposed to UVA, Mean” value is recorded as 74%. For the same molecule, where the note is “500 μM”, the “% of fluorescence relative to the control cells exposed to UVA, TEST 1” value was determined as 75%; the “% of fluorescence relative to the control cells exposed to UVA, TEST 2” value came to 70%; the “% of fluorescence relative to the control cells exposed to UVA, TEST 3” value is 58%; the “% of fluorescence relative to the control cells exposed to UVA, Mean” value is reported as 68%. Further, under “at 500 μM, with dose effect”, the “Measurement of the intracellular Red/Ox balance: % reduction in the fluorescence of the DCFH probe” value is recorded as “approximately 32%”.
